Data reported in PubChem BioAssay AID256 (DTP/NCI, 2004).
Values joined by “and” are separate entries in the source; they are usually repeats but may differ in a detail not shown here. Identical values can stand only once. Toxic doses and inconclusive results are not listed.

Test system: CD2F1 mice, L1210 leukemia ip, survival T/C
Assay: NCI In Vivo Anticancer Drug Screen. Data for tumor model L1210 Leukemia (intraperitoneal) in CD2F1 (CDF1) mice
Conditions: higher = longer survival
Method in brief: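 Activity against a transplanted murine tumor was judged by comparing the compound group with a vehicle group. The outcome in the treated animals was divided by that in the controls.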

[1] = endpoint: mean survival time, dose: 100.0 mg/kg/injection, schedule: Q01DX009 (ip), vehicle: saline with Tween-80
[2] = endpoint: mean survival time, dose: 100.0 mg/kg/injection, schedule: Q04DX003 (ip), vehicle: saline with Tween-80
[3] = endpoint: mean survival time, dose: 200.0 mg/kg/injection, schedule: Q01DX009 (ip), vehicle: saline with Tween-80
[4] = endpoint: mean survival time, dose: 200.0 mg/kg/injection, schedule: Q04DX003 (ip), vehicle: saline with Tween-80
[5] = endpoint: mean survival time, dose: 400.0 mg/kg/injection, schedule: Q01DX009 (ip), vehicle: saline with Tween-80
[6] = endpoint: mean survival time, dose: 400.0 mg/kg/injection, schedule: Q04DX003 (ip), vehicle: saline with Tween-80
[7] = endpoint: mean survival time, dose: 100.0 mg/kg/injection, schedule: Q01DX009 (ip), vehicle: other
[8] = endpoint: mean survival time, dose: 200.0 mg/kg/injection, schedule: Q01DX009 (ip), vehicle: other

With `c1cc[c]([Sb]([c]2ccccc2)[c]2ccccc2)cc1` the T/C (endpoint: mean survival time, dose: 20.0 mg/kg/injection, schedule: Q04DX003 (ip), vehicle: saline sonified) was 97 % of control and the T/C (endpoint: mean survival time, dose: 40.0 mg/kg/injection, schedule: Q04DX003 (ip), vehicle: saline sonified) was 94 % of control.

`CN=C(N)N/N=C(\C)c1ccc2sc3ccc(/C(C)=N/NC(N)=NC)cc3c2c1` was tested, and the T/C (endpoint: median survival time, dose: 25.0 mg/kg/injection, schedule: Q01DX009 (ip), vehicle: saline with Tween-80) was 113 % of control and 124 % of control, the T/C (endpoint: median survival time, dose: 50.0 mg/kg/injection, schedule: Q01DX009 (ip), vehicle: saline with Tween-80) was 112 % of control and the T/C (endpoint: median survival time, dose: 100.0 mg/kg/injection, schedule: Q01DX009 (ip), vehicle: saline with Tween-80) was 117 % of control. The T/C (endpoint: median survival time, dose: 200.0 mg/kg/injection, schedule: Q01DX009 (ip), vehicle: saline with Tween-80) was 119 % of control and the T/C (endpoint: median survival time, dose: 400.0 mg/kg/injection, schedule: Q01DX009 (ip), vehicle: saline with Tween-80) was 119 % of control and 102 % of control.

For `O=C(O)C1=NN(c2cccc([N+](=O)[O-])c2)C(=O)C1`, the T/C [1] was 114 % of control, the T/C [2] was 98 % of control and the T/C [3] was 101 % of control. The T/C [4] was 104 % of control, the T/C [5] was 95 % of control and the T/C [6] was 102 % of control.

`NC(N)=NCCNC(=O)C1CCC(N)C1` (centres undefined) was tested, and the T/C (endpoint: mean survival time, dose: 0.63 mg/kg/injection, schedule: Q01DX009 (ip), vehicle: saline) was 96 % of control and the T/C (endpoint: mean survival time, dose: 1.25 mg/kg/injection, schedule: Q01DX009 (ip), vehicle: saline) was 96 % of control.

With `Cc1ccc(C(=O)O)cc1` the T/C [2] was 101 % of control, the T/C [4] was 93 % of control and the T/C [6] was 97 % of control.

For `Oc1ccc(I)cc1`, the T/C [7] was 96 % of control, the T/C [8] was 103 % of control and the T/C (endpoint: mean survival time, dose: 400.0 mg/kg/injection, schedule: Q01DX009 (ip), vehicle: other) was 111 % of control.

With `CCOC(=O)c1ccc2c(c1)Cc1cc(N)ccc1-2` the T/C (endpoint: mean survival time, dose: 100.0 mg/kg/injection, schedule: Q01DX001 (ip), vehicle: carboxymethylcellulose (CMC)) was 98 % of control and the T/C (endpoint: mean survival time, dose: 200.0 mg/kg/injection, schedule: Q01DX001 (ip), vehicle: carboxymethylcellulose (CMC)) was 95 % of control.

In the case of `O=P(N1CC1)(N1CC1)N1CC1`, the T/C (endpoint: mean survival time, dose: 2.0 mg/kg/injection, schedule: Q03DX003 (ip), vehicle: saline) is reported as 110 % of control and the T/C (endpoint: mean survival time, dose: 16.0 mg/kg/injection, schedule: Q01DX009 (ip), vehicle: saline) is reported as 96 % of control.

With `COc1ccc(CCc2nc(CCCCO)[nH]c2C)cc1OC` the T/C [1] was 92 % of control.

`CC(C)(O)CCC(C)(O)C1CCC2C3CCC4CC(O)CCC4(C)C3CCC21C` (centres undefined) was tested, and the T/C (endpoint: mean survival time, dose: 100.0 mg/kg/injection, schedule: Q01DX001 (ip), vehicle: saline with Tween-80) was 92 % of control, the T/C (endpoint: mean survival time, dose: 200.0 mg/kg/injection, schedule: Q01DX001 (ip), vehicle: saline with Tween-80) was 93 % of control and the T/C (endpoint: mean survival time, dose: 400.0 mg/kg/injection, schedule: Q01DX001 (ip), vehicle: saline with Tween-80) was 86 % of control.

In the case of `COc1cc(OC)c(NC(=O)Oc2ccc(SC)cc2)cc1Cl`, the T/C (endpoint: mean survival time, dose: 12.5 mg/kg/injection, schedule: Q01DX009 (ip), vehicle: saline with Tween-80) is reported as 94 % of control, the T/C (endpoint: mean survival time, dose: 25.0 mg/kg/injection, schedule: Q01DX009 (ip), vehicle: saline with Tween-80) is reported as 97 % of control and the T/C (endpoint: mean survival time, dose: 50.0 mg/kg/injection, schedule: Q01DX009 (ip), vehicle: saline with Tween-80) is reported as 97 % of control. For the same compound, the T/C [1] was 88 % of control and the T/C [3] was 92 % of control.

`COc1ccc(C(=O)/C(C)=C(/C)NCCC#N)c(OCc2ccccc2)c1OC` was tested, and the T/C (endpoint: mean survival time, dose: 12.5 mg/kg/injection, schedule: Q01DX009 (ip), vehicle: other) was 97 % of control, the T/C (endpoint: mean survival time, dose: 25.0 mg/kg/injection, schedule: Q01DX009 (ip), vehicle: other) was 97 % of control and the T/C (endpoint: mean survival time, dose: 50.0 mg/kg/injection, schedule: Q01DX009 (ip), vehicle: other) was 97 % of control. The T/C [7] was 95 % of control and the T/C [8] was 104 % of control.

For `CCOC(=O)Cn1cnc2cc(C)c(C)cc21`, the T/C [1] was 101 % of control, the T/C [2] was 94 % of control and the T/C [3] was 94 % of control. For the same compound, the T/C [4] was 100 % of control and the T/C [6] was 96 % of control.

In the case of `CN=NN(C)C(=O)NC`, the T/C (endpoint: median survival time, dose: 6.25 mg/kg/injection, schedule: Q01DX005 (ip), vehicle: saline) is reported as 110 % of control, the T/C (endpoint: median survival time, dose: 12.5 mg/kg/injection, schedule: Q01DX005 (ip), vehicle: saline) is reported as 120 % of control and the T/C (endpoint: median survival time, dose: 60.0 mg/kg/injection, schedule: Q01DX005 (ip), vehicle: saline) is reported as 186 % of control. For the same compound, the T/C (endpoint: median survival time, dose: 100.0 mg/kg/injection, schedule: Q01DX005 (ip), vehicle: saline) was 204 % of control.

For `CC(C)=NNC(=O)CC(=O)NN=C(C)C`, the T/C (endpoint: mean survival time, dose: 100.0 mg/kg/injection, schedule: Q01DX009 (ip), vehicle: saline sonified) was 100 % of control, the T/C (endpoint: mean survival time, dose: 180.0 mg/kg/injection, schedule: Q01DX009 (ip), vehicle: saline with Tween-80) was 100 % of control and the T/C (endpoint: mean survival time, dose: 200.0 mg/kg/injection, schedule: Q01DX009 (ip), vehicle: saline sonified) was 102 % of control. For the same compound, the T/C (endpoint: mean survival time, dose: 266.0 mg/kg/injection, schedule: Q01DX009 (ip), vehicle: saline with Tween-80) was 100 % of control, the T/C [5] was 110 % of control and the T/C (endpoint: mean survival time, dose: 600.0 mg/kg/injection, schedule: Q01DX009 (ip), vehicle: saline with Tween-80) was 122 % of control.

In the case of `COc1ccccc1NC(=O)Oc1ccc(Cl)c(C)c1`, the T/C (endpoint: mean survival time, dose: 100.0 mg/kg/injection, schedule: Q04DX002 (ip), vehicle: saline with Tween-80) is reported as 103 % of control, the T/C (endpoint: mean survival time, dose: 200.0 mg/kg/injection, schedule: Q04DX002 (ip), vehicle: saline with Tween-80) is reported as 103 % of control and the T/C (endpoint: mean survival time, dose: 400.0 mg/kg/injection, schedule: Q04DX002 (ip), vehicle: saline with Tween-80) is reported as 96 % of control.

`Nc1ncc(C2OC(CO)C(O)C2O)c(=O)[nH]1` (centres undefined) was tested, and the T/C (endpoint: median survival time, dose: 64.0 mg/kg/injection, schedule: Q01DX005 (ip), vehicle: saline) was 160 % of control, the T/C (endpoint: median survival time, dose: 128.0 mg/kg/injection, schedule: Q01DX005 (ip), vehicle: saline) was 162 % of control and 243 % of control and the T/C (endpoint: median survival time, dose: 256.0 mg/kg/injection, schedule: Q01DX005 (ip), vehicle: saline) was 94 % of control.

`CCOC(=O)NP(=O)(N1CC1(C)C)N1CC1(C)C` (centres undefined) was tested, and the T/C (endpoint: mean survival time, dose: 45.0 mg/kg/injection, schedule: Q01DX009 (ip), vehicle: saline) was 170 % of control, the T/C (endpoint: mean survival time, dose: 90.0 mg/kg/injection, schedule: Q01DX009 (ip), vehicle: saline) was 232 % of control and the T/C (endpoint: mean survival time, dose: 180.0 mg/kg/injection, schedule: Q01DX009 (ip), vehicle: saline) was 261 % of control.

With `Cc1ccc2nc(-c3ccc(N=Cc4ccccc4O)cc3)sc2c1` the T/C (endpoint: mean survival time, dose: 12.5 mg/kg/injection, schedule: Q01DX009 (ip), vehicle: olive oil, sesame oil, peanut oil) was 100 % of control, the T/C (endpoint: mean survival time, dose: 25.0 mg/kg/injection, schedule: Q01DX009 (ip), vehicle: olive oil, sesame oil, peanut oil) was 98 % of control and the T/C (endpoint: mean survival time, dose: 50.0 mg/kg/injection, schedule: Q01DX009 (ip), vehicle: olive oil, sesame oil, peanut oil) was 102 % of control. The T/C (endpoint: mean survival time, dose: 100.0 mg/kg/injection, schedule: Q01DX009 (ip), vehicle: olive oil, sesame oil, peanut oil) was 95 % of control, the T/C (endpoint: mean survival time, dose: 200.0 mg/kg/injection, schedule: Q01DX009 (ip), vehicle: olive oil, sesame oil, peanut oil) was 100 % of control and the T/C (endpoint: mean survival time, dose: 400.0 mg/kg/injection, schedule: Q01DX009 (ip), vehicle: olive oil, sesame oil, peanut oil) was 96 % of control.

With `Cn1c2c(c3ccccc31)CCCC2=O` the T/C (endpoint: mean survival time, dose: 100.0 mg/kg/injection, schedule: Q01DX001 (ip), vehicle: saline) was 106 % of control, the T/C (endpoint: mean survival time, dose: 200.0 mg/kg/injection, schedule: Q01DX001 (ip), vehicle: saline) was 97 % of control and the T/C (endpoint: mean survival time, dose: 400.0 mg/kg/injection, schedule: Q01DX001 (ip), vehicle: saline) was 93 % of control.

In the case of `O=c1c2ccccc2[nH]c2cccc([N+](=O)[O-])c12`, the T/C [1] is reported as 102 % of control, the T/C [2] is reported as 94 % of control and the T/C [3] is reported as 98 % of control. For the same compound, the T/C [4] was 94 % of control, the T/C [5] was 96 % of control and the T/C [6] was 91 % of control.

With `O=C1C=CC(=Nc2ccc(O)cc2)O1` the T/C (endpoint: mean survival time, dose: 5.0 mg/kg/injection, schedule: Q01DX009 (ip), vehicle: saline with Tween-80) was 100 % of control, the T/C (endpoint: mean survival time, dose: 10.0 mg/kg/injection, schedule: Q01DX009 (ip), vehicle: saline with Tween-80) was 94 % of control and the T/C (endpoint: mean survival time, dose: 20.0 mg/kg/injection, schedule: Q01DX009 (ip), vehicle: saline with Tween-80) was 104 % of control.

For `CCCCCCCCCCCC(=O)OCC1OC2C(Oc3nc(=N)ccn32)C1OC(=O)CCCCCCCCCCC` (centres undefined), the T/C (endpoint: mean survival time, dose: 12.5 mg/kg/injection, schedule: Q01DX009 (ip), vehicle: water) was 168 % of control, the T/C (endpoint: mean survival time, dose: 25.0 mg/kg/injection, schedule: Q01DX009 (ip), vehicle: water) was 247 % of control and the T/C (endpoint: mean survival time, dose: 50.0 mg/kg/injection, schedule: Q01DX009 (ip), vehicle: water) was 187 % of control. The T/C (endpoint: mean survival time, dose: 100.0 mg/kg/injection, schedule: Q01DX009 (ip), vehicle: water) was 98 % of control.

In the case of `CN(C)C(=O)N(CCCl)N=O`, the T/C (endpoint: mean survival time, dose: 16.0 mg/kg/injection, schedule: Q01DX001 (ip), vehicle: other) is reported as 176 % of control, the T/C (endpoint: mean survival time, dose: 20.0 mg/kg/injection, schedule: Q01DX001 (ip), vehicle: other) is reported as 306 % of control and the T/C (endpoint: mean survival time, dose: 32.0 mg/kg/injection, schedule: Q01DX001 (ip), vehicle: other) is reported as 570 % of control. The T/C (endpoint: mean survival time, dose: 40.0 mg/kg/injection, schedule: Q01DX001 (ip), vehicle: other) was 318 % of control.
